Experimental findings from patent publication US20150183890A1, “Methods for Formation of Cyclodextrin-Ursolic Acid Inclusion Complex” (Campbell Industries, priority 2013, published 2015) are described below.

The nature of the data set: Aqueous solubility of cyclodextrin-ursolic acid inclusion complex versus ursolic acid alone. It is filed as physicochemical. As to conditions: aqueous solutions; CDUA compared with UA alone.

For the compound `C[C@H]1[C@H](C)CC[C@]2(C(=O)O)CC[C@]3(C)C(=CC[C@@H]4[C@@]5(C)CC[C@H](O)C(C)(C)[C@@H]5CC[C@]43C)[C@H]12` [UA, 3-β-hydroxy-urs-12-en-28-oic acid], the “aqueous solubility (in words)” value is on record as “largely insoluble”.
